Patent publication US7629135B2, “Toll-like receptor agonists and antagonists and methods of use thereof” (The Board of Trustees of the University of Illinois, priority 2006, dated 2009)

Legend:
[1] = test system: mouse bone marrow derived macrophages (BMDM); assay: G-CSF secretion in mouse BMDM (ELISA); format: cell-based; details: for G-CSF secretion by FPRL1 agonists: 16 h
Procedure: SAA induces G-CSF expression in monocytes and macrophages: To determine whether SAA plays a role in neutrophilia, the ability of SAA to stimulate G-CSF expression was investigated. Human peripheral blood monocytes (PBMC) were incubated with SAA, and the concentration of secreted G-CSF in the culture medium was determined at various time points after stimulation. The concentration of SAA used in this experiment (1 μM) was well within its physiological range (0.08 μM to 80 μM). […] Since subsequent studies used mice for measurement of G-CSF secretion and neutrophilia, SAA-induced G-CSF expression in mouse bone marrow derived macrophages (BMDM) was determined, of which 98% were F4/80^+ CD14^+ based on flow cytometry analysis. […] The basal level of G-CSF remained stable at approximately 42 pg/ml/10^6 cells over the entire course of incubation.
It was next determined whether induction of G-CSF expression was a primary function of SAA or resulted from contaminating LPS in the SAA preparation. The LPS concentration in the recombinant SAA preparation was ≦0.1 ng/μg protein, translating into ≦1.14 ng/ml LPS in a typical experiment with 1 μM SAA. LPS at this or 10-fold higher concentrations was tested for its effect on the expression of G-CSF. […] Given that most proteins are heat labile while LPS is heat resistant, the ability of heat-treated SAA (1 μM) and LPS (1 μg/ml) to stimulate G-CSF secretion in mouse BMDM was examined. After boiling for 25 min, LPS retained its ability to induce G-CSF production by ˜83%. […] In parallel experiments, polymyxin B, an amphiphilic cyclic polycationic peptide that specifically binds to LPS and blocks the cytokine-inducing effect of LPS (Stokes et al., 1989), was used to treat SAA or LPS prior to incubation with BMDM. […] Under the same experimental conditions, polymyxin B reduced LPS-stimulated G-CSF secretion by more than 70%.
It was previously shown that FPRL1 is involved in SAA-induced IL-8 production in human neutrophils (He et al., 2003). It has also been shown that SAA binds to FPRL1 and stimulates the production of matrix metalloproteinase (O'Hara et al., 2004). […] A role of TLR2 in SAA-stimulated G-CSF expression was examined.
Cell preparation and culture: Human peripheral blood monocytes were prepared from fresh, heparinized venous blood by Ficoll-Hypaque density-gradient centrifugation. Blood drawing followed a protocol approved by the Institutional Review Board at the University of Illinois at Chicago. Purified monocytes (>93% CD14^+ by flow cytometry) were kept in nonadherent condition in RPMI 1640 containing 0.5% FBS and maintained at 37° C. Mouse macrophages were differentiated from bone marrow cells. Mouse bone marrow cells were aspirated from the femurs of 8-12-week-old mice and cultured at 37° C. in 5% CO2 in RPMI 1640 medium containing 10% FBS, 15% L-cell conditional medium, 10 mM HEPES, 2 mM L-glutamine, 100 IU/ml penicillin, and 50 μg/ml streptomycin. The medium was changed every three days. Macrophages (about 98% F4/80+ by flow cytometry) were obtained after 7 days of culture. The mouse macrophage cell line RAW264.7 cells were maintained in DMEM medium supplemented with 10% FBS, 10 mM HEPES, 2 mM L-glutamine, 100 IU/ml penicillin, and 50 μg/ml streptomycin. TLR2-HeLa cells were generated by transfection of HeLa cell with the expression construct pUNO-hTLR2 (InvivoGen). Stable transfectants were selected with Blasticidin at 20 μg/ml for 2 weeks. Mock-transfected HeLa cells were generated similarly, with a pUNO empty vector. Cells were maintained in DMEM supplemented with 10% heat-inactivated FBS, 2 mM L-glutamine, 100 IU/ml penicillin, and 50 μg/ml streptomycin. Expression of TLR2 was confirmed using an anti-TLR2 antibody (eBioscience) and FTTC-conjugated anti-mouse antibody, on a FACSCalibur flow cytometer (Becton Dickinson). FIGS. 12 and 13 are plasmid maps of pUNO-hTLR2 and pNF-κB-Luc, respectively. […]

[2] = test system: RelA/p65 binding to the CK-1 site of the G-CSF promoter; assay: Chromatin immunoprecipitation (ChIP) assay in RAW264.7 cells; format: cell-based, mouse; details: SAA 1 μM or TNFα 50 ng/ml
Procedure: To investigate the mechanism for SAA-induced G-CSF production, the level of G-CSF transcript in SAA-stimulated BMDM was determined. […] The induction of G-CSF transcript peaked at 4 h after SAA stimulation. Since transcription of the G-CSF gene involves NF-κB binding to the RelA/p65 consensus element in the CK-1 site of the G-CSF promoter (Dunn et al., 1994; Hareng and Hartung, 2002), the role of NF-κB in SAA-stimulated G-CSF expression was determined. […] Using oligonucleotide probe based on the sequence of the CK-1 site (−161 to −152 in the G-CSF promoter), a protein •DNA complex (FIG. 2C) was identified. […] Inclusion of a RelA/p65 antibody blocking peptide in the assay abrogated the immunoprecipitation (FIG. 2D).
ChIP assay: Reagents were obtained from Upstate Biotechnology, and ChIP assay was performed as per manufacturers specifications with minor modifications. Briefly, a total of 1×10^7 RAW264.7 cells were harvested and resuspended in a serum-free DMEM medium absence or presence of 1 μM SAA, or 50 ng/ml of TNFα, and incubated for 30 or 60 min at 37° C. Following stimulation, cells were crosslinked and then washed and resuspended in SDS-lysis buffer, and were sonicated (4 times for 10 s each, with a setting at ‘4’ on a Fisher Sonic 60 dismembrenator). […] The PCR products were analyzed on a 2.5% agarose gel.

[3] = target: T1, TLR2 (Homo sapiens, UniProt O60603); assay: NF-κB luciferase reporter assay in TLR2-HeLa cells; format: cell-based; details: HDL preincubation
T1 construct: host or cells: HeLa
Procedure: To determine whether TLR2 is a receptor for SAA, a TLR2-expressing cell line was prepared in HeLa cells, which contain very little endogenous TLR2 transcript (FIG. 6A, upper panel). […] TLR2 is a class I transmembrane protein that contains an extracellular ligand binding domain (ectodomain), a transmembrane domain and a cytoplasmic domain consisting of the Toll/IL-1/receptor/Resistance (TIR) motif. Studies have shown that TLR2 forms heterodimers with TLR1 and TLR6 (Ozinsky et al., 2000), which display different preference for TLR2 ligands (Hoebe et al., 2005; Takeuchi et al., 2002). The C-terminal TIR domain is conserved among TLRs and responsible for TLR signaling (O'Neill and Bowie, 2007; Takeda and Akira, 2004). To assess the relative contributions of TLRs to SAA signaling, TLR1, TLR2, TLR4 and TLR6 were overexpressed in the TLR2-HeLa cells, and their effects on SAA-induced NF-κB luciferase reporter activity were determined. […] In addition, the TIR domain deletion mutants (ΔTIR) of these receptors were expressed, which are negative regulators of TLR signaling.
Methods for the generation of TLR2-HeLa stable cell line: HeLa cells stably transfected with human TLR2 gene were generated by transfecting HeLa cells with the expression construct pUNO-hTLR2 (InvivoGen, San Diego, Calif.; GenBank accession number for human TLR2 cDNA is NM_003264) and selected with Blasticidin at concentration of 20 μg/ml for 2 weeks. The control HeLa cells were generated at the same time by transfecting with empty pUNO vector. Cells were maintained in DMEM supplemented with 10% heat-inactivated FB S, 2 mM L-glutamine, 100 IU/ml penicillin, and 50 μg/ml streptomycin. Expression of TLR2 was confirmed using an anti-TLR2 antibody (eBioscience) and FTTC-conjugated anti-mouse antibody, on a FACSCalibur flow cytometer (Becton Dickinson). The TLR2-HeLa and control cells were then co-transfected with 5xNF-κB reporter plasmids (pNF-κB-Luc, Stratagene, Cedar Creek, Tex., catalog no. 219077) and empty SFFV vector bearing a neomycin resistant gene. The TLR2-HeLa/NF-κB reporting cells were obtained after selecting with G418 at concentration of […] for 2-3 weeks. Cells (5′10^5/ml) were grown in DMEM supplemented with 10% heat-inactivated FBS, 2 mM L-glutamine, 100 IU/ml penicillin, and […] streptomycin.
Methods for using HeLa cells in reporter assay: Mock-transfected HeLa and TLR2-HeLa cells were maintained at ˜5×10^5 cells/well in six-well plates, transfected with plasmid expression vectors coding for a 3×κB-directed luciferase reporter, pCMVβ vector DNA (Promega) and/or other expression constructs as indicated. Total DNA concentration was adjusted to 1 μg/sample by addition of empty vector DNA. Transient transfection was performed using LipofectAmine Plus reagent (Invitrogen). […]

T1 sequence (O60603 21-784): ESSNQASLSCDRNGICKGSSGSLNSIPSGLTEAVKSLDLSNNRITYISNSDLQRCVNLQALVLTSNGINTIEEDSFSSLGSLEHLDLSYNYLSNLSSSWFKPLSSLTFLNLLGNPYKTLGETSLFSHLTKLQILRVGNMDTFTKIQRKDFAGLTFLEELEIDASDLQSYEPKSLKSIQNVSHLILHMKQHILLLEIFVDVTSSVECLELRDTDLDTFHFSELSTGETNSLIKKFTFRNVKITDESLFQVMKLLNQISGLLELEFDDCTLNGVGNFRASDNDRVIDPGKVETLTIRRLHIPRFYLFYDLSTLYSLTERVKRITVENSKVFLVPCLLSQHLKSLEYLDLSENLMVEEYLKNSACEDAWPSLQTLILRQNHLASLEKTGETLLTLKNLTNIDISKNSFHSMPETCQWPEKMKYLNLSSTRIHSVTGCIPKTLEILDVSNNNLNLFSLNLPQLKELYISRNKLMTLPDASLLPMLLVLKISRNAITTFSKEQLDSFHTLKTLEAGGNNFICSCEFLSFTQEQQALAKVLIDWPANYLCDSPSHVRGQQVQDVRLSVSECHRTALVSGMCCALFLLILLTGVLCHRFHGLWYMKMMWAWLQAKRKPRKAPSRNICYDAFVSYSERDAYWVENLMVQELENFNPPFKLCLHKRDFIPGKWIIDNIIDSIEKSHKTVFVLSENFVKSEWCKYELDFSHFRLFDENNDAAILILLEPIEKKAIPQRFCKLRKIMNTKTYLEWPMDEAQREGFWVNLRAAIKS
T1 sequence (Q15399 25-786 partner): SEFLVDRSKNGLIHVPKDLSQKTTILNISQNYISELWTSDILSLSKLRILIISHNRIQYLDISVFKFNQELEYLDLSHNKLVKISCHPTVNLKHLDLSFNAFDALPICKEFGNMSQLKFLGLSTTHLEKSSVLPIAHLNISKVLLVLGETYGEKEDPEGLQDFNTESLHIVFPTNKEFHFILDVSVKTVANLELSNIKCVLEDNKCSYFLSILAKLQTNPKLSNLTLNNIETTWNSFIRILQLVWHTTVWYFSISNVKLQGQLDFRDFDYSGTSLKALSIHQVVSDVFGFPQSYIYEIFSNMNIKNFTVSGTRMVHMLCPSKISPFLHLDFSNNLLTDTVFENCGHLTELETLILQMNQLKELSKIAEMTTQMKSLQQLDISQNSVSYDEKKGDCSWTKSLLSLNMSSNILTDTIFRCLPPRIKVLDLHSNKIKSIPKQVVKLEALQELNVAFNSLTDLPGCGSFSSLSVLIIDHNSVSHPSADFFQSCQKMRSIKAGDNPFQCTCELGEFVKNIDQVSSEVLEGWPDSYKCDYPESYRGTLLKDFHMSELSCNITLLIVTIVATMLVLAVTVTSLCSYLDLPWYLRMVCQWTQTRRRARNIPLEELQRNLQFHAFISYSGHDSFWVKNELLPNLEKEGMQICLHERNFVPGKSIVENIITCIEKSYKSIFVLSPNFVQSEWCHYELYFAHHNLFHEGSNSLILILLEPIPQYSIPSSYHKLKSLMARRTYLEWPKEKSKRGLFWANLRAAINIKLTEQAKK

## Polymyxin B [reference compound]
[1]; polymyxin B 50 μg/ml pretreatment of LPS 1 μg/ml, BMDM
  reduction of LPS-stimulated G-CSF secretion: more than 70%
[1]; polymyxin B 50 μg/ml pretreatment of SAA, BMDM
  effect on potency of SAA in stimulating G-CSF expression: minimal effect

## TNFα [reference compound]
[2]
  pull-down of CK-1 DNA fragment by anti-RelA/p65 antibody: able to pull-down the CK-1 DNA fragment

## LESIFRSLLFRVM [MMK-1, reference compound]
[1]; BMDM
  G-CSF secretion by FPRL1 agonists: unable to stimulate G-CSF secretion

## pertussis toxin [reference compound]
[1]; BMDM pretreated overnight with pertussis toxin up to 200 ng/ml, then SAA 16 h
  inhibition of SAA-induced G-CSF secretion: no significant inhibition

## WKYMVm [reference compound]
[1]; BMDM
  G-CSF secretion by FPRL1 agonists: unable to stimulate G-CSF secretion

B1: L7A: SAA with Leucine to Alanine mutation at position 7 (protein)
chain: RSFFSFAGEAFDGARDMWRAYSDMREANYIGSDKYFHARGNYDAAKRGPGGAWAAEVITDARENIQRFFGHGAEDSLADQAANEWGRSGKDPNHFRPAGLPEKY
[3]
  effect of L7A mutation of SAA on the reduction by HDL of NF-κB activation: partially reversed the reduction effect by HDL
